The inhibition in vivo is how much of the control response was suppressed.

The record followed here is patent publication US4382943A, “Anti-allergic aryl ether derivatives” (Boehringer Mannheim GmbH, priority 1980, dated 1983).

This test relates to antigen induced bronchospasm in passively sensitized guinea pigs. Kind of test: Inhibition of antigen induced bronchospasm (Br Sp) in passively sensitized guinea pigs. To be noted: Cavia porcellus, po, 0.05 h, 60 min before antigen, 3 min after antigen; for inhibition in vivo at 0.38 mg/kg: 0.38 mg/kg p.o.; for inhibition in vivo at 0.75 mg/kg: 0.75 mg/kg p.o. The format is in vivo, guinea pig. How it is done:
Specifically, tests were run as follows: […] Equal volumes of saline solution of antigen (5 mg/ml) and Freund's complete adjuvant were emulsified and 0.15 ml injected into each hind foot of adult male guinea pigs (Davies and Johnson: Int. Arch. Allergy 41,648-654 (1971)). The animals were bled and the pooled serum stored at -20° C. Passive Sensitization Injections of 0.5 ml antiserum of 1:50 dilution were given i.v. 24-48 h before challenge. Guinea pigs were anaesthetized with phenobarbital sodium (40 mg/kg i.p.). Cannulae were tied into the trachea and the jugular vein and the lung inflated with a pump at a rate of 72 strokes/min and a constant stroke volume of 6-8 ml. Bronchospasm, provoked by injecting ovalbumin i.v. was measured as described by Konzett, H. and R. Rossler, "Versuchsanordnung su Untersuchungen an der Bronchialmuskulatur" Naunyn-Schmiedebergs, Arch. exp. Path. Pharmak. 195, 71-74 (1940) and modified by Collier, […] and M. Schachter: "The Bronchoconstrictor Action of Bradykinin in the Guinea-Pig" Brit. J. Pharmacol. 15, 290 (1960). The drugs were applied per os 60 minutes before the antigen. For calculation the following formula was used: % Bronchospasm (b-a)/(m-a)×100 b=Bronchospasm after antigen injection, measured in mm from tracing m=maximum height of tracing in mm with arm of the tracheacannula clamped a=pre injection height of the tracing in mm % inhibition of bronchospasm was calculated by comparing control groups with drug pretreated groups 3 minutes after antigen application.

Molecules are shown by their SMILES. Structures can show the parent of a compound that is named as a salt.

In the case of `O=C(NC1CCN(CCCOc2ccc3c4c(c(=O)oc3c2)CCC4)CC1)c1ccccc1` [Example 1, 7-[3-(4-Benzamidopiperidino)-propoxy]-2,3-dihydrocyclopenta[c][1]benzopyran-4(1H)one hydrochloride], the inhibition in vivo at 0.38 mg/kg turned out to be 47%. For `O=C(NC1CCN(CCCOc2ccc3c4c(c(=O)oc3c2)CCC4)CC1)c1ccc(F)cc1` [Example 2, 2,3-dihydro-7-{3-[4-(4-fluorobenzamido)-piperidino]-propoxy}-cyclopenta[c][1]benzopyran-4(1H)-one hydrochloride], the inhibition in vivo at 0.38 mg/kg amounted to 67%. As for `Cc1ccccc1C(=O)NC1CCN(CCCOc2ccc3c4c(c(=O)oc3c2)CCC4)CC1` [Example 4, 2,3-dihydro-7-{3-[4-(2-methylbenzamido)-piperidino]-propoxy}-cyclopenta[c][1]benzopyran-4(1H)-one], the inhibition in vivo at 0.75 mg/kg was 76%. The same measure, in the same setting: with `O=C(Cc1ccccc1)NC1CCN(CCCOc2ccc3c4c(c(=O)oc3c2)CCC4)CC1` [Example 8, 2,3-dihydro-7-[3-(4-phenylacetamido-piperidino)-propoxy]-cyclopenta-[c][1]benzopyran-4(1H)-one] the figure was 70%. On to `CC(=O)c1c(OCCCN2CCC(NC(=O)c3ccccc3)CC2)ccc2c3c(c(=O)oc12)CCC3` [Example 14, 6-acetyl-7-[3-(4-benzamido-piperidino)-propoxy]-2,3-dihydro-cyclopenta[c][1]benzopyran-4(1H)-one], for which the inhibition in vivo at 0.38 mg/kg came out at 79%. `O=C(NC1CCN(CCCOc2ccc3c4c(c(=O)oc3c2)CCCC4)CC1)c1ccc(F)cc1` [Example 17, 3-{3-[4-(4-fluorobenzamido)-piperidino]-propoxy}-7,8,9,10-tetrahydro-6H--dibenzo[b,d]pyran-6-one hydrochloride]: the inhibition in vivo at 0.38 mg/kg came to 58%.

Consider `COc1ccc(C(=O)NC2CCN(CCCOc3ccc4c5c(c(=O)oc4c3)CCCC5)CC2)cc1` [Example 18, 3-{3-[4-(4-methoxybenzamido)-piperidino]-propoxy}-7,8,9,10-tetrahydro-6H--dibenzo[b,d]-pyran-6-one], for which the inhibition in vivo at 0.38 mg/kg amounted to 35% and the inhibition in vivo at 0.75 mg/kg stood at 87%. As to `Cc1ccccc1C(=O)NC1CCN(CCCOc2ccc3c4c(c(=O)oc3c2)CCCC4)CC1` [Example 21, 3-{3-[4-(2-methyl-benzamido)-piperidino]-propoxy}-7,8,9,10-tetrahydro-6H--dibenzo[b,d]pyran-6-one], the inhibition in vivo at 0.38 mg/kg is 51% and the inhibition in vivo at 0.75 mg/kg came to 78%. With `CC(C)(C)NCC(O)c1cc(O)cc(O)c1` (stereo not drawn) [Terbutalin, reference compound], under “0.1 mg/kg p.o.”, the inhibition in vivo at 0.1 mg/kg worked out at 12%. Moreover, where the note is “1.0 mg/kg p.o.”, the inhibition in vivo at 1 mg/kg stood at 52%.
